Measured values published in article PMC10925993, “6-Aryl-4-cycloamino-1,3,5-triazine-2-amines: synthesis, antileukemic activity, and 3D-QSAR modelling” (RSC Advances, 2024).
Where two headings read alike, the source gives them in different places.

How the values were obtained:
Jurkat T cells = test: Antiproliferative screening at 10 μM, MTS assay; assay type: cell-based, human; conditions: Homo sapiens, read-out: Cell viability (%)
Experimental: The Jurkat T cell line was chosen for its reliability as a model for chemotherapeutic studies, particularly in T-cell leukemia.[13]
An MTS (3-(4,5-dimethylthiazol-2-yl)-5-(3-carboxymethoxyphenyl)-2-(4-sulfophenyl)-2H-tetrazolium inner salt) assay[20] was used to assess the leukemic cell viability. […] A total of 2 × 10^3 cells per 100 μL cell culture media were seeded into each well of a 96-well plate and incubated for 24 h. Then, tested compounds or reference drugs [6-mercaptopurine (Merck Millipore, Germany), methotrexate (Merck Millipore, Germany) and cytarabine (Merck Millipore, Germany)] were added, followed by incubation for 72 h. […] The absorbance in each well was measured at 490 nm using a microplate reader (Tecan NanoQuant Infinite M200 Pro, Austria). The percentage of cell viability was estimated by comparing absorbance in wells with the treated and untreated (vehicle control) cells using the following formula: ODtreated/ODuntreated × 100%. All experiments were performed in triplicate and repeated in three independent experiments. The GI50 values were calculated using sigmoidal concentration-response curves generated by the GraphPad Prism 8 program.[21]

[1] = Jurkat T cells, 10 μM, 72 h after treatment, MTS, mean of three independent experiments

melting point [°C] | SMILES | viability at 10 µM (Jurkat T cells; [1]) [%] | viability at 10 µM (Jurkat T cells; Jurkat, 72 h) [%]
– | Nc1nc(-c2ccccc2)nc(N2CCCC2)n1 [9{1,1}] | 100 | –
182 to 183 | Nc1nc(-c2cccc(F)c2)nc(N2CCCC2)n1 [9{1,2}, 6-(3-Fluorophenyl)-4-pyrrolidino-1,3,5-triazine-2-amine] | 100 | –
202 to 203 | Nc1nc(-c2ccc(F)cc2)nc(N2CCCC2)n1 [9{1,3}, 6-(4-Fluorophenyl)-4-pyrrolidino-1,3,5-triazine-2-amine] | 97 | –
185 to 186 | Cc1cccc(-c2nc(N)nc(N3CCCC3)n2)c1 [9{1,5}, 6-(3-Methylphenyl)-4-pyrrolidino-1,3,5-triazine-2-amine] | 82 | –
229 to 230 | Cc1ccc(-c2nc(N)nc(N3CCCC3)n2)cc1 [9{1,6}, 6-(4-Methylphenyl)-4-pyrrolidino-1,3,5-triazine-2-amine] | 100 | –
196 to 197 | CC(C)(C)c1ccc(-c2nc(N)nc(N3CCCC3)n2)cc1 [9{1,7}, 6-[4-(tert-Butyl)phenyl]-4-pyrrolidino-1,3,5-triazine-2-amine] | 88 | –
208 to 209 | COc1ccc(-c2nc(N)nc(N3CCCC3)n2)cc1 [9{1,9}, 6-(4-Methoxyphenyl)-4-pyrrolidino-1,3,5-triazine-2-amine] | 100 | –
207 to 208 | Nc1nc(-c2cccc([N+](=O)[O-])c2)nc(N2CCCC2)n1 [9{1,10}, 6-(3-Nitrophenyl)-4-pyrrolidino-1,3,5-triazine-2-amine] | 94 | –
186 to 187 | Nc1nc(-c2ccc(C(F)(F)F)cc2)nc(N2CCCC2)n1 [9{1,11}, 6-[4-(Trifluoromethyl)phenyl]-4-pyrrolidino-1,3,5-triazine-2-amine] | 78 | –
149 to 150 | Nc1nc(-c2ccc(OC(F)(F)F)cc2)nc(N2CCCC2)n1 [9{1,12}, 6-[4-(Trifluoromethoxy)phenyl]-4-pyrrolidino-1,3,5-triazine-2-amine] | 96 | –
170 to 171 | Nc1nc(-c2cccc(Oc3ccccc3)c2)nc(N2CCCC2)n1 [9{1,13}, 6-(3-Phenoxyphenyl)-4-pyrrolidino-1,3,5-triazine-2-amine] | 87 | –
201 to 202 | Nc1nc(-c2ccc(OCc3ccccc3)cc2)nc(N2CCCC2)n1 [9{1,15}, 6-[4-(Benzyloxy)phenyl]-4-pyrrolidino-1,3,5-triazine-2-amine] | 94 | –
217 to 218 | COc1ccc(-c2nc(N)nc(N3CCCC3)n2)cc1OC [9{1,16}, 6-(3,4-Dimethoxyphenyl)-4-pyrrolidino-1,3,5-triazine-2-amine] | 95 | –
213 to 214 | COc1cc(-c2nc(N)nc(N3CCCC3)n2)cc(OC)c1OC [9{1,17}, 6-(3,4,5-Trimethoxyphenyl)-4-pyrrolidino-1,3,5-triazine-2-amine] | 98 | –
210 to 211 | Nc1nc(-c2cccs2)nc(N2CCCC2)n1 [9{1,18}, 4-Pyrrolidino-6-(2-thienyl)-1,3,5-triazine-2-amine] | 100 | –
– | Nc1nc(-c2ccccc2)nc(N2CCCCC2)n1 [9{2,1}] | 100 | –
138 to 139 | Nc1nc(-c2cccc(F)c2)nc(N2CCCCC2)n1 [9{2,2}, 6-(3-Fluorophenyl)-4-piperidino-1,3,5-triazine-2-amine] | 62 | –
156 to 157 | Nc1nc(-c2ccc(F)cc2)nc(N2CCCCC2)n1 [9{2,3}, 6-(4-Fluorophenyl)-4-piperidino-1,3,5-triazine-2-amine] | 98 | –
177 to 178 | Nc1nc(-c2ccc(Cl)cc2)nc(N2CCCCC2)n1 [9{2,4}, 6-(4-Chlorophenyl)-4-piperidino-1,3,5-triazine-2-amine] | 83 | –
– | Cc1ccc(-c2nc(N)nc(N3CCCCC3)n2)cc1 [9{2,6}, 6-(4-Methylphenyl)-4-piperidino-1,3,5-triazine-2-amine] | 100 | –
178 to 179 | COc1ccc(-c2nc(N)nc(N3CCCCC3)n2)cc1 [9{2,9}, 6-(4-Methoxyphenyl)-4-piperidino-1,3,5-triazine-2-amine] | 100 | –
158 to 159 | Nc1nc(-c2cccc([N+](=O)[O-])c2)nc(N2CCCCC2)n1 [9{2,10}, 6-(3-Nitrophenyl)-4-piperidino-1,3,5-triazine-2-amine] | 100 | –
– | CC1CCN(c2nc(N)nc(-c3ccccc3)n2)CC1 [9{3,1}] | 100 | –
125 to 126 | CC1CCN(c2nc(N)nc(-c3cccc(F)c3)n2)CC1 [9{3,2}, 6-(3-Fluorophenyl)-4-(4-methylpiperidino)-1,3,5-triazine-2-amine] | 61 | –
> 300 | CC1CCN(c2nc(N)nc(-c3ccc(F)cc3)n2)CC1 [9{3,3}, 6-(4-Fluorophenyl)-4-(4-methylpiperidino)-1,3,5-triazine-2-amine] | 86 | –
168 to 169 | CC1CCN(c2nc(N)nc(-c3ccc(Cl)cc3)n2)CC1 [9{3,4}, 6-(4-Chlorophenyl)-4-(4-methylpiperidino)-1,3,5-triazine-2-amine] | 79 | –

melting point [°C] | SMILES | viability at 10 µM (Jurkat T cells; [1]) [%] | viability at 10 µM (Jurkat T cells; Jurkat, 72 h) [%]
> 300 | Cc1ccc(-c2nc(N)nc(N3CCC(C)CC3)n2)cc1 [9{3,6}, 6-(4-Methylphenyl)-4-(4-methylpiperidino)-1,3,5-triazine-2-amine] | 100 | –
212 to 213 | CC1CCN(c2nc(N)nc(-c3ccc(N(C)C)cc3)n2)CC1 [9{3,8}, 6-[4-(N,N-Dimethylamino)phenyl]-4-(4-methylpiperidino)-1,3,5-triazine-2-amine] | 84 | –
172 to 173 | COc1ccc(-c2nc(N)nc(N3CCC(C)CC3)n2)cc1 [9{3,9}, 6-(4-Methoxyphenyl)-4-(4-methylpiperidino)-1,3,5-triazine-2-amine] | 100 | –
153 to 154 | CC1CCN(c2nc(N)nc(-c3cccc([N+](=O)[O-])c3)n2)CC1 [9{3,10}, 4-(4-Methylpiperidino)-6-(3-nitrophenyl)-1,3,5-triazine-2-amine] | 84 | –
– | COc1cc(-c2nc(N)nc(N3CCC(C)CC3)n2)cc(OC)c1OC [9{3,17}, 6-(3,4,5-Trimethoxyphenyl)-4-(4-methylpiperidino)-1,3,5-triazine-2-amine] | 95 | –
– | CN1CCN(c2nc(N)nc(-c3ccccc3)n2)CC1 [9{4,1}] | 100 | –
187 to 188 | CN1CCN(c2nc(N)nc(-c3cccc(F)c3)n2)CC1 [9{4,2}, 6-(3-Fluorophenyl)-4-(4-methylpiperazino)-1,3,5-triazine-2-amine] | 95 | –
192 to 193 | CN1CCN(c2nc(N)nc(-c3ccc(F)cc3)n2)CC1 [9{4,3}, 6-(4-Fluorophenyl)-4-(4-methylpiperazino)-1,3,5-triazine-2-amine] | 100 | –
– | CN1CCN(c2nc(N)nc(-c3ccc(Cl)cc3)n2)CC1 [9{4,4}, 6-(4-Chlorophenyl)-4-(4-methylpiperazino)-1,3,5-triazine-2-amine] | – | 100
194 to 195 | Cc1cccc(-c2nc(N)nc(N3CCN(C)CC3)n2)c1 [9{4,5}, 6-(3-Methylphenyl)-4-(4-methylpiperazino)-1,3,5-triazine-2-amine] | 95 | –
– | Nc1nc(-c2ccccc2)nc(N2CCOCC2)n1 [9{5,1}] | 98 | –
– | Nc1nc(-c2cccc(F)c2)nc(N2CCOCC2)n1 [9{5,2}] | 100 | –
– | Nc1nc(-c2ccc(F)cc2)nc(N2CCOCC2)n1 [9{5,3}] | 100 | –
– | Nc1nc(-c2ccc(Cl)cc2)nc(N2CCOCC2)n1 [9{5,4}] | 100 | –
– | Cc1cccc(-c2nc(N)nc(N3CCOCC3)n2)c1 [9{5,5}] | 100 | –
– | Cc1ccc(-c2nc(N)nc(N3CCOCC3)n2)cc1 [9{5,6}] | 100 | –
– | CC(C)(C)c1ccc(-c2nc(N)nc(N3CCOCC3)n2)cc1 [9{5,7}] | 60 | –
– | CN(C)c1ccc(-c2nc(N)nc(N3CCOCC3)n2)cc1 [9{5,8}] | 100 | –
– | COc1ccc(-c2nc(N)nc(N3CCOCC3)n2)cc1 [9{5,9}] | 100 | –
– | Nc1nc(-c2ccc(OC(F)(F)F)cc2)nc(N2CCOCC2)n1 [9{5,12}] | 100 | –
– | Nc1nc(-c2cccc(Oc3ccccc3)c2)nc(N2CCOCC2)n1 [9{5,13}] | 78 | –
– | Nc1nc(-c2cccc(OCc3ccccc3)c2)nc(N2CCOCC2)n1 [9{5,14}] | 63 | –
– | Nc1nc(-c2ccc(OCc3ccccc3)cc2)nc(N2CCOCC2)n1 [9{5,15}] | 94 | –
– | COc1ccc(-c2nc(N)nc(N3CCOCC3)n2)cc1OC [9{5,16}] | 100 | –
– | COc1cc(-c2nc(N)nc(N3CCOCC3)n2)cc(OC)c1OC [9{5,17}] | 100 | –
– | Nc1nc(-c2cccs2)nc(N2CCOCC2)n1 [9{5,18}] | 77 | –
